# Results as given in article PMC7346179, “Fe Porphyrin-Based SOD Mimic and Redox-Active Compound, (OH)FeTnHex-2-PyP^4+, in a Rodent Ischemic Stroke (MCAO) Model: Efficacy and Pharmacokinetics as Compared to Its Mn Analogue, (H2O)MnTnHex-2-PyP^5+” (Antioxidants, 2020).
# “And” between values parts separate entries of the source, which are not always exact repeats. Equal values may be shown once.
# Key:
# [1] = 7-day PK study in healthy rats; format: in vivo
# Experimental: Samples were prepared as described in [10] with modifications to accommodate the small tissue sizes and enhance the detection sensitivity. Quantitative liquid chromatography electrospray-ionization tandem mass spectrometry (LCMS/MS) analysis was performed on a Shimadzu 20A series HPLC (LC)-Applied Biosystems/MDS Sciex API 3200 QTrap or API 4000 QTrap tandem-mass spectrometer (MS/MS) as described earlier. The use of heptafluorobutyric acid (HFBA) mobile phase modifier as an ion-pairing agent increases the overall lipophilicity and volatility, which increases the retention and ionization efficiency of the analytes, affording an abundance of HFBA-associated ions. […] (OH)FeTnBuOE-2-PyP^4+ was prepared as described for other Fe(III) N-alkylpyridylporphyrins and analogous (H2O)MnTnBuOE-2-PyP^5+ [13, 16]. The solvents employed were: A = 95:5 H2O:MeCN (0.1% HFBA); B = MeCN (0.1% HFBA). […] With the chosen solvent system, all four atropoisomers collapsed into a single peak, enhancing the sensitivity of the method to as low as 0.5 nM (nanomoles per L of tissue homogenate). Analyses were performed using a Phenomenex Luna C18 guard cartridge (ID × L, 2 × 4 mm) only. […] Their structures are also shown. […] The response was calculated as the ratio between the standard peak area and the internal standard peak area. We conducted a 7-day rat PK study under conditions identical to those that afforded the therapeutic efficacy of MnTnHex-2-PyP^5+ in an earlier study. […] Afterwards, blood/plasma samples were collected before injection and at 2 h after 24 h-injections (every second injection). Liver and brains were taken for analysis 12 h after the last injection. Three rats were used per compound. After the single (first) SC injection, we obtained a prototypical PK profile observed in the case of all Mn(III) ortho […] In contrast, although similarly absorbed after SC injection, the […] Our understanding is that the “elimination” process is actually a fast distribution/retention into/by the liver, kidney, and spleen, a multi-compartmental process responsible for early decay of the plasma concentration, observed for all Mn porphyrin analogs investigated.
# [2] = 2-h PK study in rats that underwent MCAO; format: in vivo
# Experimental: Samples were prepared as described in [10] with modifications to accommodate the small tissue sizes and enhance the detection sensitivity. Quantitative liquid chromatography electrospray-ionization tandem mass spectrometry (LCMS/MS) analysis was performed on a Shimadzu 20A series HPLC (LC)-Applied Biosystems/MDS Sciex API 3200 QTrap or API 4000 QTrap tandem-mass spectrometer (MS/MS) as described earlier. The use of heptafluorobutyric acid (HFBA) mobile phase modifier as an ion-pairing agent increases the overall lipophilicity and volatility, which increases the retention and ionization efficiency of the analytes, affording an abundance of HFBA-associated ions. […] (OH)FeTnBuOE-2-PyP^4+ was prepared as described for other Fe(III) N-alkylpyridylporphyrins and analogous (H2O)MnTnBuOE-2-PyP^5+ [13, 16]. The solvents employed were: A = 95:5 H2O:MeCN (0.1% HFBA); B = MeCN (0.1% HFBA). […] With the chosen solvent system, all four atropoisomers collapsed into a single peak, enhancing the sensitivity of the method to as low as 0.5 nM (nanomoles per L of tissue homogenate). Analyses were performed using a Phenomenex Luna C18 guard cartridge (ID × L, 2 × 4 mm) only. […] Their structures are also shown. […] The response was calculated as the ratio between the standard peak area and the internal standard peak area. Another possible cause for the failure of therapeutics in stroke may be their slow accumulation in the brain, i.e., not being there in time to prevent the burst of reactive species and rapid activation of transcription factors, which perpetuate oxidative stress. We therefore conducted short-term 2-h PK to evaluate how fast post-MCAO our drug gets into the brain. Three rats per compound were subjected to 90 min of transient right MCAO as reported. The first dose of 0.225 mg/kg was given IV via the […] at 5 min after ischemia/reperfusion. The second dose of 0.225 mg/kg was given SC at 30 min after reperfusion. Blood was collected at 2 h and plasma harvested. Rats were perfused with heparin saline (2000 IU/500 mL) until no reddish fluid came out from the right atrium. Then, the liver, and left and right brain were collected and placed on dry ice and stored at -20 °C. Plasma, liver, and brain were analyzed by LCMS/MS.
# [3] = cited from earlier work
# SOD-deficient E. coli = conditions: higher than MnHex; cited from earlier work
# mice = conditions: mouse, in vivo, cited from earlier work
# [4] = healthy rats, SC 0.225 mg/kg BID 7 days, 12 h after last injection
# [5] = healthy rats, SC 0.225 mg/kg BID 7 days, WinNonlin simulation
substance,measurement,setting,value
monohydroxo Fe(III) meso-tetrakis(N-n-hexylpyridinium-2yl)porphyrin [FeHex],plasma exposure (AUC) relative to MnHex,[1]; 7-day twice-daily treatment of rats,more than 2 fold
same,brain concentration at end of 7-day treatment,[1]; [4],24 nM
same,end-of-treatment 7-day liver tissue level,[1]; [4],0.04 µM
same,average plasma concentration (Caver),[1]; [5],160 nM
same,plasma AUC,[1]; [5],26.9 µM·h
same,Cmax,"[1]; healthy rats, SC 0.225 mg/kg BID 7 days, WinNonlin simulation, read-out: Cmax at steady state, plasma",210 nM
same,elimination from plasma after single (first) SC injection,"[1]; healthy rats, SC 0.225 mg/kg, first 12 h",much slower elimination from the plasma
same,plasma half-life,"[1]; healthy rats, SC 0.225 mg/kg, estimated from simulation, 0.225 mg/kg",23 h and ~ 23 h
same,level in injured (right) brain hemisphere,"[2]; rats after 90-min MCAO, 0.225 mg/kg IV + 0.225 mg/kg SC, 2 h after reperfusion",~ 55 nM
same,liver level relative to MnHex,"[2]; rats after MCAO, 2 h",lower in the liver
same,plasma level relative to MnHex,"[2]; rats after MCAO, 2 h",higher in plasma
same,"log kcat(O2^•−), log of rate constant for catalysis of O2^•− dismutation",[3],7.53
same,efficacy in SOD-deficient E. coli model relative to MnHex,SOD-deficient E. coli,~ 2 orders of magnitude
same,blood pressure drop,"mice; ip, 10 mg/kg",does not
same,arterial hypotension in experimental animals,mice,does not cause arterial hypotension
